The values that follow come from patent US12187723B2 (BRISTOL-MYERS SQUIBB COMPANY, priority 2019, dated 2025).

In assay [1] the target is T1, human TLR8 (Homo sapiens, UniProt Q9NR97).
T1 construct: host or cells: HEK-Blue cells
T1 sequence (Q9NR97 27-1041): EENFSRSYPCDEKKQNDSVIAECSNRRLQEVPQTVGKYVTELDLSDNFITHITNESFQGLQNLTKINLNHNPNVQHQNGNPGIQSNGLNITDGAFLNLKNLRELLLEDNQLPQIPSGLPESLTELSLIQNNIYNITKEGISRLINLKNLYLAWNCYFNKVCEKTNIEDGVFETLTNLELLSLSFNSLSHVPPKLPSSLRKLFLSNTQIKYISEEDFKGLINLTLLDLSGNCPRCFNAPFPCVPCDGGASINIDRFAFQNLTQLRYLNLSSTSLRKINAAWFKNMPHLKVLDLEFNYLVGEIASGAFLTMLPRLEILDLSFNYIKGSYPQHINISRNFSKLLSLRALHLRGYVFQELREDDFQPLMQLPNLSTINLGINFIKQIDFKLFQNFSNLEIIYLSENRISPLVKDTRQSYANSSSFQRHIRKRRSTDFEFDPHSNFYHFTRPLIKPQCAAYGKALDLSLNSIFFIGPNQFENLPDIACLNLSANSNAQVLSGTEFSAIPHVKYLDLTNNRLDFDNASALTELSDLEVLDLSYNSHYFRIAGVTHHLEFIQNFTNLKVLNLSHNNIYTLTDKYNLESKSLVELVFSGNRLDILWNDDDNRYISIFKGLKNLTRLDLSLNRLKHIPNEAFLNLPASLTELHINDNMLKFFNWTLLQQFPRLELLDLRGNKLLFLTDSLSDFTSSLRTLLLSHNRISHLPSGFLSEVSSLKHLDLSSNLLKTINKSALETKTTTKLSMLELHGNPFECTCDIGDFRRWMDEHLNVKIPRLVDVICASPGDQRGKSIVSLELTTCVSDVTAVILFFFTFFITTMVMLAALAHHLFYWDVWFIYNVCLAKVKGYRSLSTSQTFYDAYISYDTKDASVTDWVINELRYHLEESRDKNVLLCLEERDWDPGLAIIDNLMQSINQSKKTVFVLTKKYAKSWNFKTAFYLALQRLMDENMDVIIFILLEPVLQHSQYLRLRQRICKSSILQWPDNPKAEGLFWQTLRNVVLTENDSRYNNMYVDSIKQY
In words: TLR8 inhibition reporter assay (HEK-Blue SEAP). The assay is classed as cell-based. The conditions noted are these: HEK-Blue cells overexpressing human TLR8, R848 15.9 μM, 22 hour incubation. In short, it runs like this:
(§1)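 Agonists used: gardiquimod 7.5 μM (TLR7), R848 15.9 μM (TLR8), ODN2006 5 nM (TLR9), added after 30 min room-temperature compound pre-treatment (0.05 nM–50 μM) of receptor-overexpressing HEK-Blue cells. SEAP reporter (NF-κB/AP-1 driven) read after 22 h at 37 °C; inhibition scaled between agonist+DMSO and reference-inhibitor wells.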

Assay [2] concerns the target T2, human TLR9 (Homo sapiens, UniProt Q9NR96).
T2 construct: host or cells: HEK-Blue cells
T2 sequence (Q9NR96 26-1032): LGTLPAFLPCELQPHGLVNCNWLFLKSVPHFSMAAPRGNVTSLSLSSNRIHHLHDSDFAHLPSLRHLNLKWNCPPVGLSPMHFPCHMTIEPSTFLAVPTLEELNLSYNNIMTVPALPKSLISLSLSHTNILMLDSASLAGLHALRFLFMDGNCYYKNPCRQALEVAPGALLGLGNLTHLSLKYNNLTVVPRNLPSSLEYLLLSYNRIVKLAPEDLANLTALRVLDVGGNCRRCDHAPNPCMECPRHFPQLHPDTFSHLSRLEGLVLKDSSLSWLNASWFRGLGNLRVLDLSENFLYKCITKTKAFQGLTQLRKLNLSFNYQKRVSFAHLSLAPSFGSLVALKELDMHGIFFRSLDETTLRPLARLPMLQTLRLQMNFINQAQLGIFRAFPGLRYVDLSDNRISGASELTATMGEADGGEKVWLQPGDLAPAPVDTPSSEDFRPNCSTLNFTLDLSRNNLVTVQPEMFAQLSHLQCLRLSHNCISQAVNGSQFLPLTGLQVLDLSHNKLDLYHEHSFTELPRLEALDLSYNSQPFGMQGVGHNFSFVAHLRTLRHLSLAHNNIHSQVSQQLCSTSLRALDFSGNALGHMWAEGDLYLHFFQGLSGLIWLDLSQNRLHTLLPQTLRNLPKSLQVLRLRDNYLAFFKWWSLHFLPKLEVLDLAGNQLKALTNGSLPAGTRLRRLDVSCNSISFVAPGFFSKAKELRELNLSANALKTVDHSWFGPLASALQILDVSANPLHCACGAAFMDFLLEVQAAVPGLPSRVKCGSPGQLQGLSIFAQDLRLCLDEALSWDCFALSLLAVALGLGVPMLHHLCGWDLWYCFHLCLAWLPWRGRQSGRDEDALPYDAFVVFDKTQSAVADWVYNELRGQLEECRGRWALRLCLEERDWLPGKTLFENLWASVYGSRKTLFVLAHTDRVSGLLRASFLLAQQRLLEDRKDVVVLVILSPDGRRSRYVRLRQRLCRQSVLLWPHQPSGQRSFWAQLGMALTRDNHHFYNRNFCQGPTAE
In words: TLR9 inhibition reporter assay (HEK-Blue SEAP). The assay is classed as cell-based. The conditions noted are these: HEK-Blue cells overexpressing human TLR9, ODN2006 5 nM, 22 hour incubation. The procedure, abridged:
as §1

Structures are written as SMILES.

For the compound `COc1cc(-c2cc3[nH]c(=O)n([C@H]4CC[C@@H](NC5CCCC5)CC4)c3cc2C)cn2ncnc12` [Example 65, 1-((1s,4s)-4-(cyclopentylamino)cyclohexyl)-5-(8-methoxy-[1,2,4]triazolo[1,5-a]pyridin-6-yl)-6-methyl-1,3-dihydro-2H-benzo[d]imidazol-2-one], the 50% inhibitory concentration (IC50) in assay [1] turned out to be 0.0017 µM; in assay [2] it was 3.44 µM.
`CCN1CCC[C@@H](n2c(=O)[nH]c3cc(-c4cc(OC)c5ncnn5c4)c(C)cc32)C1` [Example 52, (R)-1-(1-ethylpiperidin-3-yl)-5-(8-methoxy-[1,2,4]triazolo[1,5-a]pyridin-6-yl)-6-methyl-1,3-dihydro-2H-benzo[d]imidazol-2-one]: the IC50 worked out at 0.0257 µM in assay [1] and 2.96 µM in assay [2].
The like results for `Cc1cc2c(cc1-c1cc(C)c3ncnn3c1)[nH]c(=O)n2[C@@H]1CCCN(CCCC(F)(F)F)C1` [Example 39, (R)-6-methyl-5-(8-methyl-[1,2,4]triazolo[1,5-a]pyridin-6-yl)-1-(1-(4,4,4-trifluorobutyl)piperidin-3-yl)-1,3-dihydro-2H-benzo[d]imidazol-2-one] were, in that order, 0.0493 µM and 10.6 µM.
For `COc1cc(-c2cc3[nH]c(=O)n([C@H]4CC[C@@H](NC5COC5)CC4)c3cc2C)cn2ncnc12` [Example 59, 5-(8-methoxy-[1,2,4]triazolo[1,5-a]pyridin-6-yl)-6-methyl-1-((1s,4s)-4-(oxetan-3-ylamino)cyclohexyl)-1,3-dihydro-2H-benzo[d]imidazol-2-one] the same measures were 0.0188 µM and 7.57 µM.
Turning to `COc1cc(-c2ccc3c(c2)[nH]c(=O)n3C2CCN(C3CCC3)CC2)cn2ncnc12` [Example 83, 1-(1-cyclobutylpiperidin-4-yl)-5-(8-methoxy-[1,2,4]triazolo[1,5-a]pyridin-6-yl)-1,3-dihydro-2H-benzo[d]imidazol-2-one], the 50% inhibitory concentration (IC50) in assay [1] was found to be 1.26 µM; in assay [2], 5.37 µM.
The like results for `Cc1cc2c(cc1-c1cc(C)c3ncnn3c1)[nH]c(=O)n2C1CCN(CC(=O)N(C)C)CC1` [Example 91, N,N-dimethyl-2-(4-(6-methyl-5-(8-methyl-[1,2,4]triazolo[1,5-a]pyridin-6-yl)-2-oxo-2,3-dihydro-1H-benzo[d]imidazol-1-yl)piperidin-1-yl)acetamide] were, in that order, above 3.13 µM and above 50 µM.
For `Cc1cc2c(cc1-c1cc(C)c3ncnn3c1)[nH]c(=O)n2[C@@H]1CCCN(CC2CC2)C1` [Example 37, (R)-1-(1-(cyclopropylmethyl)piperidin-3-yl)-6-methyl-5-(8-methyl-[1,2,4]triazolo[1,5-a]pyridin-6-yl)-1,3-dihydro-2H-benzo[d]imidazol-2-one], the IC50 was determined as 0.0287 µM in assay [1] and 10.1 µM in assay [2].
Regarding `COc1cc(-c2cc3[nH]c(=O)n([C@@H]4CCCN(C5CCOCC5)C4)c3cc2C)cn2ncnc12` [Example 70, (R)-5-(8-methoxy-[1,2,4]triazolo[1,5-a]pyridin-6-yl)-6-methyl-1-(1-(tetrahydro-2H-pyran-4-yl)piperidin-3-yl)-1,3-dihydro-2H-benzo[d]imidazol-2-one], the values for the concentration for half-maximal inhibition (IC50) in assay [1] and in assay [2] were 0.117 µM and 17.6 µM, respectively.
The like results for `COc1cc(-c2cc3[nH]c(=O)n([C@@H]4CCCN(C(C)C)C4)c3cc2C)cn2ncnc12` [Example 53, (R)-1-(1-isopropylpiperidin-3-yl)-5-(8-methoxy-[1,2,4]triazolo[1,5-a]pyridin-6-yl)-6-methyl-1,3-dihydro-2H-benzo[d]imidazol-2-one] were, in that order, 0.0359 µM and 3.75 µM.
Take `Cc1cc2c(cc1-c1cc(C)c3ncnn3c1)[nH]c(=O)n2C1CCN(CC(=O)N(C)C)CC1` [Example 89, N,N-dimethyl-2-(4-(6-methyl-5-(8-methyl-[1,2,4]triazolo[1,5-a]pyridin-6-yl)-2-oxo-2,3-dihydro-1H-benzo[d]imidazol-1-yl)piperidin-1-yl)acetamide]: the 50% inhibitory concentration (IC50) in assay [1] was determined as 0.105 µM; in assay [2], 29 µM.
The like results for `Cc1cc2c(cc1-c1cc(C)c3ncnn3c1)[nH]c(=O)n2[C@H]1CCCN(CC(=O)N(C)C)C1` [Example 93, (S)—N,N-dimethyl-2-(3-(6-methyl-5-(8-methyl-[1,2,4]triazolo[1,5-a]pyridin-6-yl)-2-oxo-2,3-dihydro-1H-benzo[d]imidazol-1-yl)piperidin-1-yl)acetamide] were, in that order, 0.105 µM and 12.6 µM.
The like results for `COc1cc(-c2cc3[nH]c(=O)n([C@@H]4CCCN(C5CCC5)C4)c3cc2C)cn2ncnc12` [Example 69, (R)-1-(1-cyclobutylpiperidin-3-yl)-5-(8-methoxy-[1,2,4]triazolo[1,5-a]pyridin-6-yl)-6-methyl-1,3-dihydro-2H-benzo[d]imidazol-2-one] were, in that order, 0.11 µM and 19.3 µM.
For `CCCN1CCC(n2c(=O)[nH]c3cc(-c4cc(OC)c5ncnn5c4)ccc32)CC1` [Example 76, 5-(8-methoxy-[1,2,4]triazolo[1,5-a]pyridin-6-yl)-1-(1-propylpiperidin-4-yl)-1,3-dihydro-2H-benzo[d]imidazol-2-one], the IC50 turned out to be 0.251 µM in assay [1] and 1.71 µM in assay [2].
For `CNC(=O)CN1CCC(n2c(=O)[nH]c3cc(-c4cc(C)c5ncnn5c4)c(C)cc32)CC1` [Example 88, N-methyl-2-(4-(6-methyl-5-(8-methyl-[1,2,4]triazolo[1,5-a]pyridin-6-yl)-2-oxo-2,3-dihydro-1H-benzo[d]imidazol-1-yl)piperidin-1-yl)acetamide] the same measures were 0.115 µM and 45.3 µM.
For `Cc1cc2c(cc1-c1cc(C)c3ncnn3c1)[nH]c(=O)n2[C@@H]1CCCN(CC(C)C)C1` [Example 40, (R)-1-(1-isobutylpiperidin-3-yl)-6-methyl-5-(8-methyl-[1,2,4]triazolo[1,5-a]pyridin-6-yl)-1,3-dihydro-2H-benzo[d]imidazol-2-one], the IC50 is 0.0196 µM in assay [1] and 6.47 µM in assay [2].
For `Cc1cc2c(cc1-c1cc(C)c3ncnn3c1)[nH]c(=O)n2[C@H]1CC[C@@H](NCC(C)(C)C)CC1` [Example 32, 6-methyl-5-(8-methyl-[1,2,4]triazolo[1,5-a]pyridin-6-yl)-1-((1s,4s)-4-(neopentylamino)cyclohexyl)-1,3-dihydro-2H-benzo[d]imidazol-2-one] the same measures were 0.00061 µM and 2.34 µM.
For `COc1cc(-c2cc3[nH]c(=O)n([C@@H]4CCCN(CC(C)C)C4)c3cc2C)cn2ncnc12` [Example 56, (R)-1-(1-isobutylpiperidin-3-yl)-5-(8-methoxy-[1,2,4]triazolo[1,5-a]pyridin-6-yl)-6-methyl-1,3-dihydro-2H-benzo[d]imidazol-2-one], the IC50 in assay [1] was found to be 0.0112 µM; in assay [2], 4.81 µM.
